The values that follow come from ChEMBL document CHEMBL1649570, “Pharmacokinetics and ex vivo pharmacodynamic antimalarial activity of dihydroartemisinin-piperaquine in patients with uncomplicated falciparum malaria in Vietnam” (Antimicrob Agents Chemother, 2009).

Usually Cmax stands for the highest concentration seen after dosing. Broadly, the Tmax is the time at which the peak concentration occurs. The AUC is concentration integrated over time. One may read the half-life as the time needed for the level to fall by half in the phase considered. Usually CL/F stands for the apparent clearance, not corrected for the fraction that reaches the circulation. The IC90 is the concentration at which the effect reaches the 90% level. Low readings indicate an effect from little substance, high ones a need for much substance. As a reminder, the IC50 is the concentration needed to halve the response being measured. In general, AUC(0-inf) refers to the area under the concentration-time curve extrapolated to infinity. Read a high AUC(0-inf) as more exposure.

Series [1] can be described thus: Cmax in Plasmodium falciparum-infected patient at 40 mg/kg, po. The settings on record: human, in vivo. Format: ADME, organism-based. Also on record: dose 40 mg/kg, route oral.
Series [2] can be described thus: Tmax in Plasmodium falciparum-infected patient at 40 mg/kg, po. Format: ADME, organism-based. Also on record: dose 40 mg/kg, route oral. The settings on record: human, in vivo.
Series [3] in a line: AUC in Plasmodium falciparum-infected patient at 40 mg/kg, po. Format: ADME, organism-based. Also on record: dose 40 mg/kg, route oral. The settings on record: human, plasma.
Series [4] concerns Homo sapiens. Nature of the series: AUC (0 to infinity) in Plasmodium falciparum-infected patient at 40 mg/kg, po. Format: ADME, organism-based, Plasma. Also on record: time infinity, dose 40 mg/kg, route oral. The settings on record: in vivo.
Series [5] in a line: Half life in Plasmodium falciparum-infected patient at 40 mg/kg, po. The settings on record: human, in vivo. Format: ADME, organism-based. Also on record: dose 40 mg/kg, route oral.
Series [6] has as its system Homo sapiens. Nature of the series: Apparent oral clearance in Plasmodium falciparum-infected patient at 40 mg/kg, po. Format: ADME, organism-based. More on the design: dose 40 mg/kg, route oral. The settings on record: in vivo.
For series [7], the system named is Plasmodium falciparum. The series can be described thus: Antiplasmodial activity against Plasmodium falciparum D6. Format: functional.
The subject of series [8] is Plasmodium falciparum. Nature of the series: Antiplasmodial activity against Plasmodium falciparum K1. Format: functional.
Series [9] relates to Plasmodium falciparum. Nature of the series: Antiplasmodial activity against Plasmodium falciparum K1 assessed as inhibition of [3H]hypoxanthine incorporation by beta counting. Format: functional, organism-based.
Series [10] deals with Plasmodium falciparum. The series can be described thus: Antiplasmodial activity against Plasmodium falciparum D6 isolated from po dosed patient with malaria. Format: functional.
The subject of series [11] is Plasmodium falciparum. Nature of the series: Antiplasmodial activity against Plasmodium falciparum K1 isolated from po dosed patient with malaria. Format: functional.
Series [12] is described as follows: Cmax in Plasmodium falciparum-infected patient at 320 mg/kg, po. Format: ADME, organism-based. Also on record: dose 320 mg/kg, route oral. The settings on record: human, in vivo.
Series [13] can be described thus: Tmax in Plasmodium falciparum-infected patient at 320 mg/kg, po. Format: ADME, organism-based. Also on record: dose 320 mg/kg, route oral. The settings on record: human, in vivo.
Series [14] in a line: AUC in Plasmodium falciparum-infected patient at 320 mg/kg, po. Format: ADME, organism-based. More on the design: dose 320 mg/kg, route oral. The settings on record: human, plasma.
A short description of series [15]: AUC (0 to infinity) in Plasmodium falciparum-infected patient at 320 mg/kg, po. More on the design: time infinity, dose 320 mg/kg, route oral. The settings on record: human, plasma. Format: ADME, organism-based.
A short description of series [16]: Half life in Plasmodium falciparum-infected patient at 320 mg/kg, po. The settings on record: human, in vivo. Format: ADME, organism-based. Also on record: dose 320 mg/kg, route oral.
Series [17] deals with Plasmodium falciparum. The series can be described thus: Antiplasmodial activity against Plasmodium falciparum K1 isolated from po dosed patient with malaria after 7 days. Format: functional, organism-based.
Series [18] deals with Plasmodium falciparum. The series can be described thus: Antiplasmodial activity against Plasmodium falciparum D6 isolated from po dosed patient with malaria after 7 days. Format: functional, organism-based.
The test system of series [19] is Plasmodium falciparum. The series can be described thus: Antiplasmodial activity against Plasmodium falciparum D6 isolated from patient with malaria at 25 ng/ml after 28 days. Format: functional, organism-based.
The subject of series [20] is Plasmodium falciparum. The series can be described thus: Antiplasmodial activity against Plasmodium falciparum K1 isolated from patient with malaria at 25 ng/ml after 28 days. Format: functional, organism-based.
A short description of series [21]: Plasma concentration in Plasmodium falciparum-infected patient at 320 mg/kg, po after 28 days. Format: ADME, organism-based. The settings on record: human. Also on record: dose 320 mg/kg, route oral.

Molecules are shown by their SMILES. In brackets after ≈: the same amount, converted by molar mass. Activity calls are given as the source filed them.

On to `C[C@H]1[C@@H](O)O[C@@H]2O[C@@]3(C)CC[C@H]4[C@H](C)CC[C@@H]1[C@@]24OO3` [ARTENIMOL], for which the Cmax in series [1] is 698 ng/mL. Also, the Tmax in [2] was found to be 2.8 h. Moreover, the figures for the area under the curve (AUC) (in [3]; in the series with Homo sapiens [4]) were 1950 ng·h/mL and 1949 ng·h/mL, respectively. Further, the half-life in [5] is 0.85 h. Besides, in the series with Homo sapiens [6], the CL/F came to 19.8 mL/min/kg. For the same compound, the results for the IC90 in the series with Plasmodium falciparum [7] and in the series on Plasmodium falciparum [8] were 4.5 nM and 4.85 nM, respectively. Besides, the IC50 in the series on Plasmodium falciparum [9] came to 2.57 nM. The ID90 amounted to 0.639 µg/mL (≈ 2.25 µM) in the series on Plasmodium falciparum [10] and 0.513 µg/mL (≈ 1.8 µM) with Plasmodium falciparum [11].

In series [12], `Clc1ccc2c(N3CCN(CCCN4CCN(c5ccnc6cc(Cl)ccc56)CC4)CC3)ccnc2c1` [PIPERAQUINE] yielded a Cmax of 568 ng/mL. Besides, the Tmax in series [13] worked out at 5.7 h. Also, in series [14], the AUC stood at 44400 ng·h/mL. This compound displayed an AUC(0-inf) in [15] of 56400 ng·h/mL. In addition, the half-life in series [16] was 427 h. Further, the IC90 with Plasmodium falciparum [7] is 67.5 nM; in the series with Plasmodium falciparum [8], 122 nM. The Cp in the series on Plasmodium falciparum [17] and in the series with Plasmodium falciparum [18] was 25 ng/mL each time. Also, the IC50 in the series on Plasmodium falciparum [9] stood at 82.1 nM. Also, the result in the series with Plasmodium falciparum [19] and in the series with Plasmodium falciparum [20] was inactive. The compound also had a concentration at 672 h in [21] of 25 ng/mL.
